Consider 38 compounds from patent publication US9233977B2, “Leucine-rich repeat kinase enzyme activity” (Merck Sharp & Dohme Corp., priority 2010, dated 2016).

The target of the assay is T1, LRRK2 G2019S mutant kinase (Homo sapiens, UniProt Q5S007, G2019S).
T1 construct: GST; purchased Invitrogen PV4882
T1 sequence (Q5S007 whole entry G2019S): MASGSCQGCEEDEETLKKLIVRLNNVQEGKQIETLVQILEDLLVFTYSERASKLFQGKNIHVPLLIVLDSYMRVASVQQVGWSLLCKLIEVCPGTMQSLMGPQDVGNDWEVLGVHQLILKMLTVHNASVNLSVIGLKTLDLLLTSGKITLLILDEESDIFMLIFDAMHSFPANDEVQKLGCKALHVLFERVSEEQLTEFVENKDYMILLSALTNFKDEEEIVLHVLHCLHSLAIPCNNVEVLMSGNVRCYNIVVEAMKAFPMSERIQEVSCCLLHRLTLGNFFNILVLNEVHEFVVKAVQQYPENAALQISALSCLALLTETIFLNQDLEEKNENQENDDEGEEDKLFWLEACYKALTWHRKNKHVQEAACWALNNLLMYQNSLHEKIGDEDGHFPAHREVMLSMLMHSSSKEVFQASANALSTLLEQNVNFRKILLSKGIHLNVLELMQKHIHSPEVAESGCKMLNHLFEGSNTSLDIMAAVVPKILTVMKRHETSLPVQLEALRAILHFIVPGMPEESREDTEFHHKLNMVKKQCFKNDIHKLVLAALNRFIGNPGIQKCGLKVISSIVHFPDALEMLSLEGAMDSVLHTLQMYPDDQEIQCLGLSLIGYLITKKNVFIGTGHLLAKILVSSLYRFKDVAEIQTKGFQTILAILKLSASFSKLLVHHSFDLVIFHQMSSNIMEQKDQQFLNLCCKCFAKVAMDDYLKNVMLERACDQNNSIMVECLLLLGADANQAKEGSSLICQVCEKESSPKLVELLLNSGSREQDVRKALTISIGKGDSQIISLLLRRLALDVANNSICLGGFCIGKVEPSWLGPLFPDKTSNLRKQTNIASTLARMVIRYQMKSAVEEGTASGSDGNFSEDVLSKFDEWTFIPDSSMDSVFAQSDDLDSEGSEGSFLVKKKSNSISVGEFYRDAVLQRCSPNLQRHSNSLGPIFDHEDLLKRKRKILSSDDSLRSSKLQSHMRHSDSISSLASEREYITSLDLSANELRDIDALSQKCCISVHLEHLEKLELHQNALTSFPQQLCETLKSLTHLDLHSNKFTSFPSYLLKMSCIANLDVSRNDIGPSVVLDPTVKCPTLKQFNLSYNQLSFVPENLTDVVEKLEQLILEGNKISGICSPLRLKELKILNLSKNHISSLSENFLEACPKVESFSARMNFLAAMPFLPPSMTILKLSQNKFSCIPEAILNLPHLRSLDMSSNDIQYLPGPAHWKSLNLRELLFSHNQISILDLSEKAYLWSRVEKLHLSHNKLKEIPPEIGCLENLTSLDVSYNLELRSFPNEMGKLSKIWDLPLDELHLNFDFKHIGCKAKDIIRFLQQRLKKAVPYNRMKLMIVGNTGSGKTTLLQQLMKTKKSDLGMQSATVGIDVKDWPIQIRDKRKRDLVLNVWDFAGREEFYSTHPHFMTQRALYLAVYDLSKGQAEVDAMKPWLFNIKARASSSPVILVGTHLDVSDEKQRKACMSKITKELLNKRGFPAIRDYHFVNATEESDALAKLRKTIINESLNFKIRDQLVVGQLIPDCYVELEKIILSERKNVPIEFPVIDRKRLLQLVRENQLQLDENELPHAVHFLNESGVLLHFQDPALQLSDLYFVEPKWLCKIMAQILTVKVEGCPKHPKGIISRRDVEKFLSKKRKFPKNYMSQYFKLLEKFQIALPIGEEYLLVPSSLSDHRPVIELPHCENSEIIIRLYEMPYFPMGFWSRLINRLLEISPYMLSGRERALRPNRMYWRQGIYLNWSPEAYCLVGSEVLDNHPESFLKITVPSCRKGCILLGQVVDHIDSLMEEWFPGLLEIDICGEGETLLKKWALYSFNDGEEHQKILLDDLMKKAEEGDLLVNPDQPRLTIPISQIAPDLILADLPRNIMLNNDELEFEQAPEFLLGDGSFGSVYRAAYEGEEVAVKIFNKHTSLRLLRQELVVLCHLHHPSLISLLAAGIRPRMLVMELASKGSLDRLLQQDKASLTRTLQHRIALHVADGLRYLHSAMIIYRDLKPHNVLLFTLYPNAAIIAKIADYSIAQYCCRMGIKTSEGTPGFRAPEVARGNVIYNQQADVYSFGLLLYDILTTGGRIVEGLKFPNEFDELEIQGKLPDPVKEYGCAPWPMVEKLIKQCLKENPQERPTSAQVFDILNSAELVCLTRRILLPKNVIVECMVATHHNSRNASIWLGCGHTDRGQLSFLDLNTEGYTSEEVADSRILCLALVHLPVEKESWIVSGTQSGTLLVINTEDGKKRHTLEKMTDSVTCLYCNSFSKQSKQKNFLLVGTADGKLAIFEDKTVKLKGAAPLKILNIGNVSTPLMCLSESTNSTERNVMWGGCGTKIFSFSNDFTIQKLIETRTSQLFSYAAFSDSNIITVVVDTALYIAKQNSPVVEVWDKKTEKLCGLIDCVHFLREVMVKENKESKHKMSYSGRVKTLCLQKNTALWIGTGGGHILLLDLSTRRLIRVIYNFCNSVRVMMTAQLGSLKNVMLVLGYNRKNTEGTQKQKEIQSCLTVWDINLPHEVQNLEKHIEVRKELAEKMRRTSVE
As to the kind of experiment: LRRK2 G2019S LanthaScreen TR-FRET kinase assay. The settings on record: LRRK2 G2019S GST-tagged protein, 75 nM Fluorescein-ERM (LRRKtide), 100 μM ATP, 1 hour at room temperature; read-out: IC50 (potency). In kind it is biochemical. As for the experimental part:
The final solvent concentration in the assay was 1% DMSO. […] Generation of raw data and workup of data to derive the IC50 (potency) and maximal inhibition at concentrations tested were performed using Merck's Assay Data Analyzer (ADA) software.
The IC50 (potency) was evaluated for the example compounds presented above.
On to `CCC(C)CSc1sc(-c2cc[nH]n2)c2c1C(=O)N[C@H](C)C2` (some centres unmarked) [Example 49], for which the concentration for half-maximal inhibition (IC50) is 0.12 µM.

For the compound `CSc1sc(-c2cc[nH]n2)c2c1C(=O)N(Cc1ccnc3ccccc13)CC2` [Example 56, 3-(methylsulfanyl)-1-(1H-pyrazol-3-yl)-5-(quinolin-4-ylmethyl)-6,7-dihydrothieno[3,4-c]pyridin-4(5)-one], the 50% inhibitory concentration (IC50) was 3.7 µM.

Take `CSc1sc(-c2cc[nH]n2)c2c1C(=O)N(C(C)C)CC2` [Example 54, 3-(Methylsulfanyl)-5-(propan-2-yl)-1-(1H-pyrazol-3-yl)-6,7-dihydrothieno[3,4-c]pyridin-4(5H)-one]: the 50% inhibitory concentration (IC50) was 3.5 µM.

For the compound `CSc1sc(-c2cc[nH]n2)c2c1C(=O)N(CCN1CCOCC1)CC2` [Example 67, 3-(methylsulfanyl)-5-[2-(morpholin-4-yl)ethyl]-1-(1H-pyrazol-3-yl)-6,7-dihydrothieno[3,4-c]pyridin-4(5)-one], the IC50 amounted to 9.2 µM.

In the case of `O=C1NCCc2c(-c3cc[nH]n3)sc(Sc3ccccc3)c21` [Example 53, 3-phenylsulfanyl-1-(1H-pyrazol-3-yl)-6,7-dihydrothieno[3,4-c]pyridin-4(5)-one], the IC50 was 1.5 µM.

For the compound `CSc1sc(-c2cc[nH]n2)c2c1C(=O)N(c1ccccc1)CC2` [Example 81, 3-(Methylsulfanyl)-5-phenyl-1-(1H-pyrazol-3-yl)-6,7-dihydrothieno[3,4-c]pyridin-4(5H)-one], the concentration for half-maximal inhibition (IC50) is 2 µM.

Regarding `CSc1sc(-c2cc[nH]n2)c2c1C(=O)N(CCCCCc1ccccc1)CC2` [Example 74, 5-[(5-phenyl)pentyl]-3-(methylsulfanyl)-1-(1H-pyrazol-3-yl)-6,7-dihydrothieno[3,4-c]pyridin-4(5)-one], the concentration for half-maximal inhibition (IC50) was found to be 7.5 µM.

As for `COCC1Cc2c(-c3cc[nH]n3)sc(SC)c2C(=O)N1` (centres unmarked) [Example 11, 6-methoxymethyl-3-(methylsulfanyl)-1-(1H-pyrazol-3-yl)-6,7-dihydrothieno[3,4-c]pyridin-4(5)-one], the IC50 was determined as 0.34 µM.

Take `CNc1sc(-c2cc[nH]n2)c2c1C(=O)N[C@@H](C)C2` [Example 99, (6S)-3-(methylamino)-6-methyl-1-(1H-pyrazol-3-yl)-6,7-dihydrothieno[3,4-c]pyridin-4(5H)-one]: the IC50 was 1.2 µM.

For `CC1Cc2c(-c3cc[nH]n3)sc(SC3CCCC3)c2C(=O)N1` (centres unmarked) [Example 31, 6-methyl-3-(cyclopentylsulfanyl)-1-(1H-pyrazol-3-yl)-6,7-dihydrothieno[3,4-c]pyridin-4(5)one], the IC50 was 0.035 µM.

As for `CSc1sc(-c2cc[nH]n2)c2c1C(=O)N(c1cccc(F)c1)CC2` [Example 82, 5-(3-fluorophenyl)-3-(methylsulfanyl)-1-(1H-pyrazol-3-yl)-6,7-dihydrothieno[3,4-c]pyridin-4(5)-one], the IC50 stood at 4 µM.

On to `CSc1sc(-c2cc[nH]n2)c2c1C(=O)N(CCCCC#N)CC2` [Example 70, 5-[3-(methylsulfanyl)-4-oxo-1-(1H-pyrazol-3-yl)-6,7-dihydrothieno[3,4H)-yl]pentanenitrile], for which the half-inhibitory concentration (IC50) was found to be 2.5 µM.

As to `CSc1sc(-c2cc[nH]n2)c2c1C(=O)N(CC1CCCNC1)CC2` (centres unmarked) [Example 65, 3-(methylsulfanyl)-1-(1H-pyrazol-3-yl)-5-(piperidin-3-ylmethyl)-6,7-dihydrothieno[3,4-c]pyridin-4(5H)-one], the IC50 stood at 3.4 µM.

Turning to `CSc1sc(-c2cc[nH]n2)c2c1C(=O)NC(C(=O)OC(C)(C)C)C2` (centres unmarked) [Example 20, tert-butyl-3-(methylsulfanyl)-4-oxo-1-(1H-pyrazol-3-yl)-4,5,6,7-tetrahydrothieno[3,4-c]pyridine-carboxylate], the half-inhibitory concentration (IC50) was 7.9 µM.

As to `CSc1sc(-c2cc[nH]n2)c2c1C(=O)NC[C@H]2C` [Example 22, (7S)-7-methyl-3-(methylsulfanyl)-1-(1H-pyrazol-3-yl)-6,7-dihydrothieno[3,4-c]pyridin-4(5)-one], the half-maximal inhibitory concentration (IC50) amounted to 0.4 µM.

Regarding `CSc1sc(-c2cc[nH]n2)c2c1C(=O)N[C@H](c1ccc(F)cc1)C2` [Example 18, (6S)-3-(methylsulfanyl)-6-(4-fluorophenyl)-1-(1H-pyrazol-3-yl)-6,7-dihydrothieno[3,4-c]pyridin-4(5)-one], the half-maximal inhibitory concentration (IC50) turned out to be 0.085 µM.

On to `CC1CNC(=O)c2c(SC3CCCC3)sc(-c3cc[nH]n3)c21` (centres unmarked) [Example 36, 7-methyl-3-(cyclopentylsulfanyl)-1-(1H-pyrazol-3-yl)-6,7-dihydrothieno[3,4-c]pyridin-4(5)-one], for which the IC50 was 0.052 µM.

With `O=C1NC2(CCC2)Cc2c(-c3cc[nH]n3)sc(NC3CCCC3)c21` [Example 88, 3′-(cyclopentylamino)-4′-oxo-1′-(1H-pyrazol-3-yl)-7′H-spiro[cyclobutane-1,6′-thieno[3,4-1]pyridine]-4′(5′H)-one], the IC50 came to 0.12 µM.

As to `C[C@H]1Cc2c(-c3cc[nH]n3)sc(SCC(=O)O)c2C(=O)N1` [Example 51, (6S)-6-methyl-1-{[4-oxo-1-(1H-pyrazol-3-yl)-4,5,6,7-tetrahydrothieno[3,4-c]pyridin-3-yl]sulfanyl}acetic acid], the IC50 turned out to be 2.2 µM.

As for `CSc1sc(-c2cc[nH]n2)c2c1C(=O)N(Cc1cccnc1)CC2` [Example 61, 5-[(3-pyridinyl)methyl]-3-(methylsulfanyl)-1-(1H-pyrazol-3-yl)-6,7-dihydrothieno[3,4-c]pyridin-4(5)-one], the IC50 came out at 2.1 µM.

In the case of `O=C1NCCc2c(-c3cc[nH]n3)sc(SCCO)c21` [Example 47], the IC50 turned out to be 0.58 µM.

Take `C[C@@H]1Cc2c(-c3cc[nH]n3)sc(NC3CCCC3)c2C(=O)N1` [Example 98, (6R)-3-(cyclopentylamino)-6-methyl-1-(1H-pyrazol-3-yl)-6,7-dihydrothieno[3,4-c]pyridin-4(5H)-one]: the IC50 was 0.33 µM.

As for `CNc1sc(-c2cc[nH]n2)c2c1C(=O)NCC2C` (centres unmarked) [Example 96, 3-(methylamino)-7-methyl-1-(1H-pyrazol-3-yl)-6,7-dihydrothieno[3,4-c]pyridin-4(5H)-one], the half-maximal inhibitory concentration (IC50) was 0.37 µM.

`CSc1sc(-c2cc[nH]n2)c2c1C(=O)NC1(CC1)C2` [Example 7, 3′-(methylsulfanyl)-4′-oxo-1′-(1H-pyrazol-3-yl)-7′H-spiro[cyclopropanc-1,6′-thieno[3,4-1]pyridine]-4′(5′H)-one]: the concentration for half-maximal inhibition (IC50) was determined as 0.35 µM.

For `CSc1sc(-c2cc[nH]n2)c2c1C(=O)N(Cc1ccncc1)CC2` [Example 72, 5-[(4-pyridyl)methyl]-3-(methylsulfanyl)-1-(1H-pyrazol-3-yl)-6,7-dihydrothieno[3,4-c]pyridin-4(5)-one], the IC50 was determined as 7.9 µM.

With `CC(C)CC1Cc2c(-c3cc[nH]n3)sc(NC3CCCC3)c2C(=O)N1` (centres unmarked) [Example 89, 3-(cyclopentylamino)-6-(2-methyl)propyl-1-(1H-pyrazol-3-yl)-6,7-dihydrothieno[3,4-c]pyridin-4(5H)-one], the half-inhibitory concentration (IC50) was found to be 0.19 µM.

With `CSc1sc(-c2cc[nH]n2)c2c1C(=O)NC1(CCCC1)C2` [Example 8, 3′-(methylsulfanyl)-4′-oxo-1′-(1H-pyrazol-3-yl)-7′H-spiro[cyclopentane-1,6′-thieno[3,4-1]pyridine]-4′(5′H)-one], the IC50 worked out at 0.22 µM.

Regarding `CNc1sc(-c2cc[nH]n2)c2c1C(=O)N[C@H](C)C2` [Example 100, (6R)-3-(methylamino)-6-methyl-1-(1H-pyrazol-3-yl)-6,7-dihydrothieno[3,4-c]pyridin-4(5H)-one], the IC50 was 3.1 µM.

In the case of `O=C1NCCc2c(-c3cc[nH]n3)sc(SC3CCCCC3)c21` [Example 45, 3-(cyclohexylsulfanyl)-1-(1H-pyrazol-3-yl)-6,7-dihydrothieno[3,4-c]pyridin-4(5)-one], the IC50 is 0.38 µM.

`CC1CNC(=O)c2c(SCC3CC3)sc(-c3cc[nH]n3)c21` (stereo in doubt) [Example 29]: the IC50 amounted to 0.031 µM.

For `CSc1sc(-c2cc[nH]n2)c2c1C(=O)NC(C)C2` (centres unmarked) [Example 3, 6-methyl-3-(methylsulfanyl)-1-(1H-pyrazol-3-yl)-6,7-dihydrothieno[3,4-c]pyridin-4(5)-one], the 50% inhibitory concentration (IC50) stood at 0.26 µM.

On to `CSc1sc(-c2cc[nH]n2)c2c1C(=O)NC(C1CCC1)C2` (centres unmarked) [Example 14, 6-cyclobutyl-3-(methylsulfanyl)-1-(1H-pyrazol-3-yl)-6,7-dihydrothieno[3,4-c]pyridin-4(5)-one], for which the IC50 turned out to be 0.19 µM.

On to `CSc1sc(-c2cc[nH]n2)c2c1C(=O)N(Cc1ccc(Br)cn1)CC2` [Example 57, 5-[(5-bromopyridin-2-yl)methyl]-3-(methylsulfanyl)-1-(1H-pyrazol-3-yl)-6,7-dihydrothieno[3,4-c]pyridin-4(5)-one], for which the half-inhibitory concentration (IC50) stood at 3.8 µM.

In the case of `CNc1sc(-c2cc[nH]n2)c2c1C(=O)NC1(CCC1)C2` [Example 94, 3′-(methylamino)-4′-oxo-1′-(1H-pyrazol-3-yl)-7′H-spiro[cyclobutane-1,6′-thieno[3,4-1]pyridine]-4′(5′H)-one], the IC50 is 0.55 µM.

In the case of `CCSc1sc(-c2cc[nH]n2)c2c1C(=O)NCC2` [Example 42, 3-ethylsulfanyl-1-(1H-pyrazol-3-yl)-6,7-dihydrothieno[3,4-c]pyridin-4(5)-one], the IC50 was 0.36 µM.

Regarding `CSc1sc(-c2cc[nH]n2)c2c1C(=O)N(CCC=C(F)F)CC2` [Example 69, 5-(4,4-difluorobut-3-en-1-yl)-3-(methylsulfanyl)-1-(1H-pyrazol-3-yl)-6,7-dihydrothieno[3,4-c]pyridin-4(5)-one], the half-inhibitory concentration (IC50) worked out at 0.76 µM.

As for `CSc1sc(-c2cc[nH]n2)c2c1C(=O)N(CCc1ccccc1)CC2` [Example 55, 3-(methylsulfanyl)-5-(2-phenethyl)-1-(1H-pyrazol-3-yl)-6,7-dihydrothieno[3,4-c]pyridin-4(5)-one], the IC50 is 1.2 µM.

With `CCN(CC)CCSc1sc(-c2cc[nH]n2)c2c1C(=O)NCC2` [Example 39, 3-{[2-{diethylamino)ethyl]sulfanyl}-1-(1H-pyrazol-3-yl)-6,7-dihydrothieno[3,4-c]pyridin-4(5)-one], the 50% inhibitory concentration (IC50) is 5.7 µM.
